From ChEMBL document CHEMBL1133799, “A disubstituted NAD+ analogue is a nanomolar inhibitor of trypanosomal glyceraldehyde-3-phosphate dehydrogenase” (Bioorg Med Chem Lett, 2001)

Columns and labels:
[1] = test system: NIH3T3; assay: Effective dose required against Trypanosoma cruzi amastigotes in 3T3 Fibroblasts; type: functional; conditions: Mus musculus, read-out: ED50 (the source's name)
[2] = Inhibitory concentration against rabbit muscle glyceraldehyde-3-phosphate dehydrogenase (GAPDH); parameters: species or system Oryctolagus cuniculus
[3] = molecular target: glyceraldehyde-3-phosphate dehydrogenase (Leishmania mexicana); assay: Inhibitory concentration against Leishmania mexicana glyceraldehyde-3-phosphate dehydrogenase (GAPDH)
[4] = Inhibitory concentration against Trypanosoma brucei glyceraldehyde-3-phosphate dehydrogenase (GAPDH)
[5] = test system: Trypanosoma brucei; assay: Effective dose required against Trypanosoma brucei in bloodstream; type: functional; conditions: read-out: ED50 (the source's name)
[6] = Inhibitory concentration against Trypanosoma cruzi glyceraldehyde-3-phosphate dehydrogenase (GAPDH)
[7] = test system: Trypanosoma cruzi; assay: Effective dose required against Trypanosoma cruzi amastigotes; conditions: read-out: ED50 (the source's name)
[8] = molecular target: glyceraldehyde-3-phosphate dehydrogenase (Leishmania mexicana); assay: Inhibitory concentration against Leishmania mexicana glyceraldehyde-3-phosphate dehydrogenase (GAPDH); remark: listed apart in the source
[9] = test system: Trypanosoma cruzi; assay: Effective dose required against Trypanosoma cruzi amastigotes; conditions: read-out: ED50 (the source's name); remark: listed apart in the source

SMILES	IC50 [2] [µM]	IC50 [3] [µM]	IC50 [4] [µM]	EC50 [5] [µM]	IC50 [6] [µM]	EC50 [7] [µM]	IC50 [8] [µM]	EC50 [9] [µM]	EC50 [1] [µM]
O=C(Cn1ccnc1[N+](=O)[O-])NCc1ccccc1 [BENZNIDAZOLE]									> 50
NC(=O)c1ccc[n+]([C@@H]2O[C@H](COP(=O)([O-])O)[C@@H](O)[C@H]2O)c1 [BETANMN]	> 500	> 500							
COc1cccc(C(=O)N[C@@H]2[C@H](O)[C@@H](CO)O[C@H]2n2cnc3c(NCc4cccc5ccccc45)ncnc32)c1	> 50		25	30	12		6	20	> 50

Continued, in another order:

IC50 [2] [µM]	IC50 [3] [µM]	IC50 [4] [µM]	EC50 [5] [µM]	IC50 [6] [µM]	EC50 [7] [µM]	IC50 [8] [µM]	EC50 [9] [µM]	SMILES	EC50 [1] [µM]
> 100	2	7	32	5	6			COc1cccc(C(=O)N[C@@H]2[C@H](O)[C@@H](COP(=O)(O)O)O[C@H]2n2cnc3c(NCc4cccc5ccccc45)ncnc32)c1	90
			0.008					N=C(N)c1ccc(OCCCCCOc2ccc(C(=N)N)cc2)cc1 [PENTAMIDINE]	
